Experimental data from ChEMBL document CHEMBL5331073, “Discovery of novel 7,7-dimethyl-6,7-dihydro-5H-pyrrolo[3,4-d]pyrimidines as ATR inhibitors based on structure-based drug design” (Eur J Med Chem, 2023).
Each block holds one compound with its values, some of them ahead of it.

Columns and labels:
LoVo = assay: Antiproliferative activity against ATM-deficient human LoVo cells assessed as reduction in cell proliferation incubated for 3 days by MTT assay; format: functional, cell-based; conditions: 72 h
HT-29 [1] = assay: Antiproliferative activity against ATM-proficient human HT-29 cells assessed as reduction in cell proliferation incubated for 3 days by MTT assay; format: functional, cell-based; conditions: HT-29, 72 h
SW-620 = assay: Antiproliferative activity against ATM-deficient human SW620 cells assessed as reduction in cell viability incubated for 3 days by MTT assay; format: functional, cell-based; conditions: SW-620, 72 h
OVCAR-3 = assay: Antiproliferative activity against ATM-deficient human OVCAR-3 cells assessed as reduction in cell viability incubated for 3 days by MTT assay; format: functional, cell-based; conditions: OVCAR-3, 72 h
HCT-116 [2] = assay: Antiproliferative activity against ATM-proficient human HCT-116 cells assessed as reduction in cell viability incubated for 3 days by MTT assay; format: functional, cell-based; conditions: HCT-116, 72 h
A549 [3] = assay: Antiproliferative activity against ATM-proficient human A549 cells assessed as reduction in cell viability incubated for 3 days by MTT assay; format: functional, cell-based; conditions: A549, 72 h
HT-29 [4] = assay: Antiproliferative activity against ATM-proficient human HT-29 cells assessed as reduction in cell viability incubated for 3 days in presence of AZD-1390 by MTT assay; format: functional, cell-based; conditions: HT-29, 72 h
HCT-116 [5] = assay: Antiproliferative activity against ATM-proficient human HCT-116 cells assessed as reduction in cell viability incubated for 3 days in presence of AZD-1390 by MTT assay; format: functional, cell-based; conditions: HCT-116, 72 h
A549 [6] = assay: Antiproliferative activity against ATM-proficient human A549 cells assessed as reduction in cell viability incubated for 3 days in presence of AZD-1390 by MTT assay; format: functional, cell-based; conditions: A549, 72 h
HCT-116 [7] = assay: Synergistic antiproliferative activity against ATM-proficient human HCT-116 cells assessed as reduction in cell viability incubated for 3 days in presence of cisplatin by MTT assay; format: functional, cell-based; conditions: HCT-116, 72 h
HCT-116 [8] = assay: Synergistic antiproliferative activity against ATM-proficient human HCT-116 cells assessed as reduction in cell viability incubated for 3 days in presence of oxaliplatin by MTT assay; format: functional, cell-based; conditions: HCT-116, 72 h
A549 [9] = assay: Synergistic antiproliferative activity against ATM-proficient human A549 cells assessed as reduction in cell viability incubated for 3 days in presence of cisplatin by MTT assay; format: functional, cell-based; conditions: A549, 72 h
A549 [10] = assay: Synergistic antiproliferative activity against ATM-proficient human A549 cells assessed as reduction in cell viability incubated for 3 days in presence of oxaliplatin by MTT assay; format: functional, cell-based; conditions: A549, 72 h
MCF7 [11] = assay: Antiproliferative activity against human MCF7 cells assessed as reduction in cell viability incubated for 3 days by MTT assay; format: functional, cell-based; conditions: MCF7, 72 h
MCF7 [12] = assay: Synergistic antiproliferative activity against human MCF7 cells assessed as reduction in cell viability incubated for 3 days in presence of olaparib by MTT assay; format: functional, cell-based; conditions: MCF7, 72 h
MDA-MB-231 [13] = assay: Antiproliferative activity against human MDA-MB-231 cells assessed as reduction in cell viability incubated for 3 days by MTT assay; format: functional, cell-based; conditions: MDA-MB-231, 72 h
MDA-MB-231 [14] = assay: Synergistic antiproliferative activity against human MDA-MB-231 cells assessed as reduction in cell viability incubated for 3 days in presence of olaparib by MTT assay; format: functional, cell-based; conditions: MDA-MB-231, 72 h
[15] = biological target: T1, Serine/threonine-protein kinase ATR (Homo sapiens, UniProt Q13535); assay: Inhibition of ATR (unknown origin) using peptide as substrate at 0.1 uM preincubated for 10 mins followed by substrate addition by microplate reader analysis
Target sequence in this assay (Q13535 whole entry, looked up): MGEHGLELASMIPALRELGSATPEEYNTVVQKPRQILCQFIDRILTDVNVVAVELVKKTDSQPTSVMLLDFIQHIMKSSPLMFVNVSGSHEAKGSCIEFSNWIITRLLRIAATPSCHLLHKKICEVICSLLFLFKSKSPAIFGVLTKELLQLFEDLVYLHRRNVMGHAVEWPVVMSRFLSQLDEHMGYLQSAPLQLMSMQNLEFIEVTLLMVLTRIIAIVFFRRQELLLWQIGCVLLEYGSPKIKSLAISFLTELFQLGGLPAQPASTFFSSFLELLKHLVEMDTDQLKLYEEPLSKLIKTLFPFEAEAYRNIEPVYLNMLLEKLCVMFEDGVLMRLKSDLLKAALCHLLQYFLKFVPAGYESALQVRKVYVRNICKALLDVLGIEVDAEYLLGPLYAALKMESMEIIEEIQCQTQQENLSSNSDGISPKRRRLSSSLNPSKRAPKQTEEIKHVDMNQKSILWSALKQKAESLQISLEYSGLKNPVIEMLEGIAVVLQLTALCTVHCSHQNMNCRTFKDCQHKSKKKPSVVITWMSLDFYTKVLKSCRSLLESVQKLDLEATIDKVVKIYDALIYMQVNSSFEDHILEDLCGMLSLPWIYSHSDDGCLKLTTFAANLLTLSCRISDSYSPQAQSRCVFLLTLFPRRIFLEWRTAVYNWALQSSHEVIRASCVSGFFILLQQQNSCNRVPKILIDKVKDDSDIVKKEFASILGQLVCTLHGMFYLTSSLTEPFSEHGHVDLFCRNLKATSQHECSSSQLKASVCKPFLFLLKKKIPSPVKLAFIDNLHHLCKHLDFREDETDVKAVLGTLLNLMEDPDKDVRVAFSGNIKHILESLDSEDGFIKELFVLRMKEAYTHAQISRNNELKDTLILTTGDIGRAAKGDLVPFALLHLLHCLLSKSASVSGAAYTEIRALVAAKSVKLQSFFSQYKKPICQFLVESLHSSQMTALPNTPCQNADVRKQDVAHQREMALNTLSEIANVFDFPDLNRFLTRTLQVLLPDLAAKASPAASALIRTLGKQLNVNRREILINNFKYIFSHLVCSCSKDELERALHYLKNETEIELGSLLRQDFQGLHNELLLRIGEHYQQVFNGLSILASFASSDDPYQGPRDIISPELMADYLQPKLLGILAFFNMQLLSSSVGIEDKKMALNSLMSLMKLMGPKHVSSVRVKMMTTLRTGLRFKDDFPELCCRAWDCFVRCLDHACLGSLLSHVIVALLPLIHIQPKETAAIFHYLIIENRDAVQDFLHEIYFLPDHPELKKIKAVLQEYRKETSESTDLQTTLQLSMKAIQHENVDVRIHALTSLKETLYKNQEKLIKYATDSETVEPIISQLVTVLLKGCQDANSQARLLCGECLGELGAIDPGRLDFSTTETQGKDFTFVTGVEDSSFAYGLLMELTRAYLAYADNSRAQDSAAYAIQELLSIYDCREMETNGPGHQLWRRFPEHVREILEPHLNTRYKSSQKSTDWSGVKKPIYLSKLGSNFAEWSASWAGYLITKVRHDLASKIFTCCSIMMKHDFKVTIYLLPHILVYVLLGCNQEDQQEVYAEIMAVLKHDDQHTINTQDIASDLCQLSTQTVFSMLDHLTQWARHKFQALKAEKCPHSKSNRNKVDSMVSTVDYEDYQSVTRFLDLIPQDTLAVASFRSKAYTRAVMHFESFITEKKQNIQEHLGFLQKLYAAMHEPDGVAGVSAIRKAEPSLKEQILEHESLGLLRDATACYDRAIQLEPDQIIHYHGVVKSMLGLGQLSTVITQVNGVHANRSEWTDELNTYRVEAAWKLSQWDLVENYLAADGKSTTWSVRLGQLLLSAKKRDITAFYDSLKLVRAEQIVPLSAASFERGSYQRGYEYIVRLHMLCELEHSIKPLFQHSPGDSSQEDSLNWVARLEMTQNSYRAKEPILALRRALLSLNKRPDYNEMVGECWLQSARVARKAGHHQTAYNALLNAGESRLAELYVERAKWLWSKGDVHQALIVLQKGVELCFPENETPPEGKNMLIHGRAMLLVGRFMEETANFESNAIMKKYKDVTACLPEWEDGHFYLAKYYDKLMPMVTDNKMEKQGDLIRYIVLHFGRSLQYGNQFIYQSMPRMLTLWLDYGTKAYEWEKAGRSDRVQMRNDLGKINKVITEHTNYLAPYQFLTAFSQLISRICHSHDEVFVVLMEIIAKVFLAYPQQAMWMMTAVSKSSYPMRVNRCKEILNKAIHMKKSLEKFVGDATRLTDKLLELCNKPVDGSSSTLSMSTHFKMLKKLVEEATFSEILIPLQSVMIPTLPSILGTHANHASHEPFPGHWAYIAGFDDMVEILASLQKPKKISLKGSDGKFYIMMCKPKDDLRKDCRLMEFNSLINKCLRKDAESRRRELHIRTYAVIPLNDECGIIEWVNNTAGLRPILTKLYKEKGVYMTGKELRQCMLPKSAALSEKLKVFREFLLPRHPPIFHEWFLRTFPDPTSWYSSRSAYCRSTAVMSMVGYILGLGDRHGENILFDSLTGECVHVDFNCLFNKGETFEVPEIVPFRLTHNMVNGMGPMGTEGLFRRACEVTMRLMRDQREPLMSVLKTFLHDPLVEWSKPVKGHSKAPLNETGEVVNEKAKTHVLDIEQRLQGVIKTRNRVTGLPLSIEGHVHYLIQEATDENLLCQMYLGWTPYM

[16] = biological target: T1, Serine/threonine-protein kinase ATR; assay: Inhibition of ATR (unknown origin) using peptide as substrate preincubated for 10 mins followed by substrate addition by microplate reader analysis
Target sequence in this assay (Q13535 whole entry): as the sequence (Q13535 whole entry, looked up) above

[17] = biological target: Serine/threonine-protein kinase mTOR (Homo sapiens, UniProt P42345); assay: Inhibition of mTOR (unknown origin) using peptide as substrate preincubated for 10 mins followed by substrate addition by microplate reader analysis
in vitro [18] = conditions: human, liver microsomes
in vitro [19] = conditions: rat, liver microsomes
in vitro [20] = conditions: human, liver microsomes; remark: listed apart in the source
in vitro [21] = conditions: rat, liver microsomes; remark: listed apart in the source
in vitro [22] = conditions: human, liver microsomes; remark: listed apart in the source
in vitro [23] = conditions: rat, liver microsomes; remark: listed apart in the source

SMILES: C[C@@H]1COCCN1c1cc(C2(S(C)(=O)=O)CC2)nc(-c2cccc3[nH]ccc23)n1
IC50 (LoVo): 231 nM
IC50 (HT-29 [1]): 644 nM
IC50 (SW-620): 727 nM
IC50 (OVCAR-3): 563 nM
IC50 (HCT-116 [2]): 260 nM
IC50 (A549 [3]): 734 nM
IC50 (HT-29 [4]): 72 nM
IC50 (HCT-116 [5]): 151 nM
IC50 (A549 [6]): 495 nM
IC50 (HCT-116 [7]): 137 nM
IC50 (HCT-116 [8]): 92 nM
IC50 (A549 [9]): 481 nM
IC50 (A549 [10]): 333 nM
IC50 (MCF7 [11]): 2.31 µM
IC50 (MCF7 [12]): 1220 nM
IC50 (MDA-MB-231 [13]): 2.97 µM
IC50 (MDA-MB-231 [14]): 254 nM

SMILES: O=C(c1cc(Cc2n[nH]c(=O)c3ccccc23)ccc1F)N1CCN(C(=O)C2CC2)CC1 [OLAPARIB]
IC50 (MCF7 [11]): 18.6 µM
IC50 (MDA-MB-231 [13]): 73.3 µM

SMILES: C[C@@H]1COCCN1c1nc(-c2cccc3[nH]ccc23)nc2c1CCNC2(C)C
inhibition [15]: 70.7%

The next lines start with the values.

inhibition [15]: 14.6%
SMILES: C[C@@H]1COCCN1c1nc(-c2cccc3[nH]ccc23)nc2c1CCN(Cc1ccccc1)C2(C)C

inhibition [15]: 89.9%
IC50 [16]: 13 nM
IC50 [17]: 13 nM
IC50 (LoVo): 1260 nM
IC50 (HT-29 [1]): 4610 nM
half-life at 1 h, 1 µM (in vitro [18]): 11.3 min
half-life at 1 h, 1 µM (in vitro [19]): 22.7 min
microsomal CLint at 1 h, 1 µM (in vitro [20]): 123 µL/min/mg
microsomal CLint at 1 h, 1 µM (in vitro [21]): 61.4 µL/min/mg
CLint scaled at 1 h, 1 µM (in vitro [22]): 116 mL/min/kg
CLint scaled at 1 h, 1 µM (in vitro [23]): 110 mL/min/kg
SMILES: CC(=O)N1CCc2c(N3CCOC[C@H]3C)nc(-c3cccc4[nH]ccc34)nc2C1(C)C
